Assay results taken from patent publication US6627641B1, “Antimalarial naphthylisoquinoline alkaloids and pharmaceutical compositions and medical uses thereof” (The United States of America as represented by the …, priority 1994, dated 2003).
Values after ≈ are worked out from the molar mass of the structure shown.

Experiments:
[1] = tested on: P. falciparum (NF54 strain, clone A149); experiment: In vitro 3H-hypoxanthine incorporation test with P. falciparum NF 54; assay type: cell-based, Plasmodium falciparum; settings: NF 54, clone A149; six repeats; max. concentration 50 or 5 μg/ml
Method: Continuous in vitro cultures of asexual erythrocytic stages of P. falciparum (strain NF 54/64, clone A1A9) were maintained following essentially the method of Trager and Jensen (Science, 193, 673-675, 1976) at 37° C. under an atmosphere of 5% CO2, 5% O2, and 90% N2. The host cells were human erythrocytes (A or O Rh+). The culture medium was RPMI 1640 (Gibco), containing HEPES (BDH; 4.57 gL^−1), glucose (Sigma; 1.54 gL^−1), 5% NaHCO3 (Merck; 34.78 mlL^−1), and gentamycin (Merck; 8.70 mlL^−1) supplemented with 10% human plasma (A Rh+). Parasites were subinoculated every 3-4 days with initial conditions of 1% parasitemia and 1% hematocrit.
(§1) In vitro testing with P. falciparum was as follows. Each compound was dissolved in DMSO at a concentration of 20 mg ml^−1. These solutions were further diluted with physiological saline to obtain a stock solution of 500 μg ml^−1. Each test substance was applied in a series of seven, 4-fold dilutions (maximum concentrations 50 or 5 μg ml^−1). Each compound was tested in 6-fold repeats. Chloroquine was tested similarly, as a positive control.
(§2) The test protocol was performed in vitro, based upon the method of Desjardins, et al. (Antimicrobial Agents Chemother., 16, 710-715, 1979). The parasites (200 μl of a suspension with initial parasitemia of 0.5% and hematocrit of 1.5%) were incubated for 24 h in microtitre plates (Falcon MicroTest III) in hypoxanthine-free medium in the presence of 25 μl of test solution. The plates contained a negative control (6 wells with non-parasitized RBC's, no drug) and a positive control (6 wells with parasitized RBC's no drug). Thereafter, 25 μl of ^3H-hypoxanthine solution (Amersham) was added (0.5 μCi well ^−1), and the parasites were incubated for a further period of 18 h. Each well was harvested with a Cell Harvester (Nunc). The filter papers were dried for 2 h at 52° C., and their radioactivity was measured by liquid scintillation counting in Optiscint HiSafe (LKB Pharmacia).
(§3) The mean results, obtained as counts per min (cpm), were expressed as percentages of incorporation or growth inhibition. The sigmoid dose-response curve was then linearized by probit analysis with the aid of software provided by IWONL (Gent), adapted by G. Timperman and used to derive the IC50 values.

[2] = tested on: P. falciparum (K1 strain); experiment: In vitro 3H-hypoxanthine incorporation test with chloroquine-resistant P. falciparum K1; assay type: cell-based, Plasmodium falciparum
Method: Selected compounds were also tested against drug-resistant parasites. The method was the same as above except for the following modifications. The parasite used was the chloroquine-resistant strain, K1, maintained essentially according to Desjardins, et al. (supra, 1979). The culture medium was RPMI-1640 containing TES (Sigma; 7.64 gL^−1), glucose (BDH; 1.67 gL^−1), NaHCO3 (BDH; 1.94 gL^−1), and gentamycin (Nicholas; 30 mgL^−1) supplemented with 10% human serum (A RH+). Parasites were subinoculated every 3-4 days with initial conditions of 1% parasitemia and 2.5% hematocrit. For the testing, small aliquots of test material were dissolved in 20 μl EtOH and RPMI 1640 to give solutions of 1 or 10 mg ml^−1. Each was applied in a series of twelve, […] dilutions (final […] ranging from 50 to 1.19×10^−3 μg ml^−1). Chloroquine diphosphate (Sigma) was used in the same experiments as a reference and also in twelve, 4-fold dilutions (final concentrations 2×10^−5-1.19×10^−12M). Each compound was tested in duplicate.
Testing was performed in vitro based upon the method of Desjardins, et al (supra, 1979), as modified by O'Neill, et al. (Planta Med., 51, 394-399, 1985) and Ekong, et al. (Biochem. Pharmacol., 40, 297-301, 1990). The parasites (50 μl initial parasitemia of 1%, hematocrit of 5%) were incubated for 24 h in microtitre plates (Nunc) in normal (not hypoxanthine-depleted) medium in the presence of 50 μl of test solution. Controls were set up in each test by preparing 12-24 wells with non-parasitized RBC's and no test solution and 12-24 wells with parasitized RBC's and no test compound. Thereafter, 5 μl all of ^3H-hypoxanthine (Amersham) were added (0.2 μCi well ^−1), and the parasites incubated for a further period of 18 h. Each well was harvested with a Cell Harvester (Skatron). Glass fibre filters were dried briefly. Radioactivity was measured by liquid scintillation counting in Ecoscint (National Diagnostics).
The results obtained as cpm were expressed as percentages of incorporation of growth inhibition. The dose-related part of the sigmoidal curves obtained were linearized by regression analysis with the aid of software developed by S. Grant (I.SHTM) and used to calculate the IC50 values.

P. berghei (Anka) = experiment: In vitro 3H-hypoxanthine incorporation test with P. berghei (Anka); assay type: cell-based, Plasmodium berghei; settings: Anka strain
Method: as §1, §2, §3
For experiments with P. berghei (Anka strain), the parasites were maintained, and the in vitro tests performed essentially the same as above, except for the following modification. In the case of tests using P. berghei, the parasites were incubated in the same conditions as for P. falciparum (above) except that the incubations were started immediately in the presence of the ^3H-hypoxanthine and for 24 hour total duration (i.e., no delay in the addition of the ^3H-hypoxanthine). As before, the incorporated radioactivity was used as a-measure for parasite growth.

[3] = tested on: Plasmodium berghei (Anka strain); experiment: In vivo antimalarial test in OF1 mice inoculated with P. berghei; settings: 50 mg/kg oral on days 0, 1, 2, 3, OF1 mice; for Parasitemia (%) from blood smears at day 4: N=6
Method: Outbred, female, six-week-old OF1 mice (six mice per group treated and nontreated [control]) were inoculated intraperitoneally on day 0 with 10^6 P. berghei (Anka strain) blood forms. Two hours later, they were administered orally 50 mg/kg of dioncopeltine A or dioncophylline B. A second, third, and fourth treatment (50 mg/kg each) was given after 24, 48 and 72 h, respectively (days 1, 2, and 3). […] The parasitemia (%) in the control (not drug-treated) group was 3.50 (range 3.02-3.97; N=6). In the dioncopeltine A treated group, the parasitemia was 0.03 (range 0.01-0.06; N=6); in the dioncophylline B treated group, the parasitemia was […] (range 0.66-3.07; N=6).
The in vivo antimalarial testing was performed as described above, except that more doses and different treatment schedules were employed, as described in Tables 3 and 4.

Compound | IC50 P. falciparum NF54 strain [1] | IC50 P. falciparum, K1 strain [2] | IC50 P. berghei, Anka (P. berghei (Anka)) | Signs of toxicity or other side effects [3] | Parasitemia (%) from blood smears at day 4 [3]
COc1cc(CO)c(-c2ccc3c(c2O)[C@@H](C)N[C@H](C)C3)c2cccc(O)c12 [Dioncopeltine A] | 0.021 µg/mL (≈ 0.0553 µM) | 0.330 µg/mL (≈ 0.87 µM) | 0.038 µg/mL (≈ 0.1 µM) | In neither of the treated groups were any signs of toxicity or other side effects observed | 0.03%
COc1cc(C)cc2ccc(-c3ccc4c(c3O)[C@@H](C)N[C@H](C)C4)c(O)c12 [Dioncophylline B] | 0.224 µg/mL (≈ 0.616 µM) | 0.063 µg/mL (≈ 0.173 µM) | 0.228 µg/mL (≈ 0.627 µM) |  | 1.86%
